Laboratory results from patent US20020052295A1, “Diacyl derivatives of propylene diamine having herbicidal activity” (priority 1999, published 2002).

Key:
ABUTH [1] = assay: Pre-emergence herbicidal activity on ABUTH (velvetleaf); assay type: in vivo, Abutilon theophrasti; conditions: lowest tested rate giving 80% or greater inhibition, approx. 14 days after planting and treating, greenhouse
How it was run: (§1)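 Whole-plant pre-emergence assay: compound diluted into 50:50 acetone:water and applied over covered seeds in sterilized soil. Growth at 30/21 °C under mist/subirrigation; inhibition vs untreated at ~14 days, reported as GR80 over rates to typically 1000 g/ha.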

SOLNI [2] = assay: Pre-emergence herbicidal activity on SOLNI (black nightshade); assay type: in vivo, Solanum nigrum; conditions: lowest tested rate giving 80% or greater inhibition, approx. 14 days after planting and treating, greenhouse
How it was run: as §1

AMARE [3] = assay: Pre-emergence herbicidal activity on AMARE (redroot pigweed); assay type: in vivo, Amaranthus retroflexus; conditions: lowest tested rate giving 80% or greater inhibition, approx. 14 days after planting and treating, greenhouse
How it was run: as §1

DATST [4] = assay: Pre-emergence herbicidal activity on DATST (jimsonweed); assay type: in vivo, Datura stramonium; conditions: lowest tested rate giving 80% or greater inhibition, approx. 14 days after planting and treating, greenhouse
How it was run: as §1

CHEAL [5] = assay: Pre-emergence herbicidal activity on CHEAL (common lambsquarters); assay type: in vivo, Chenopodium album; conditions: lowest tested rate giving 80% or greater inhibition, approx. 14 days after planting and treating, greenhouse
How it was run: as §1

CONAR [6] = assay: Pre-emergence herbicidal activity on CONAR (field bindweed); assay type: in vivo, Convolvulus arvensis; conditions: lowest tested rate giving 80% or greater inhibition, approx. 14 days after planting and treating, greenhouse
How it was run: as §1

POROL [7] = assay: Pre-emergence herbicidal activity on POROL (common purslane); assay type: in vivo, Portulaca oleracea; conditions: lowest tested rate giving 80% or greater inhibition, approx. 14 days after planting and treating, greenhouse
How it was run: as §1

CIRAR [8] = assay: Pre-emergence herbicidal activity on CIRAR (canada thistle, seedling); assay type: in vivo, Cirsium arvense; conditions: lowest tested rate giving 80% or greater inhibition, approx. 14 days after planting and treating, greenhouse
How it was run: as §1

ECHCG [9] = assay: Pre-emergence herbicidal activity on ECHCG (barnyardgrass); assay type: in vivo, Echinochloa crus-galli; conditions: lowest tested rate giving 80% or greater inhibition, approx. 14 days after planting and treating, greenhouse
How it was run: as §1

SORHA [10] = assay: Pre-emergence herbicidal activity on SORHA (johnsongrass, seedling); assay type: in vivo, Sorghum halepense; conditions: lowest tested rate giving 80% or greater inhibition, approx. 14 days after planting and treating, greenhouse
How it was run: as §1

SETFA [11] = assay: Pre-emergence herbicidal activity on SETFA (giant foxtail); assay type: in vivo, Setaria faberi; conditions: lowest tested rate giving 80% or greater inhibition, approx. 14 days after planting and treating, greenhouse
How it was run: as §1

PANDI [12] = assay: Pre-emergence herbicidal activity on PANDI (fall panicum); assay type: in vivo, Panicum dichotomiflorum; conditions: lowest tested rate giving 80% or greater inhibition, approx. 14 days after planting and treating, greenhouse
How it was run: as §1

BRAPP [13] = assay: Pre-emergence herbicidal activity on BRAPP (broadleaf signalgrass); assay type: in vivo, Brachiaria platyphylla; conditions: lowest tested rate giving 80% or greater inhibition, approx. 14 days after planting and treating, greenhouse
How it was run: as §1

DIGSA [14] = assay: Pre-emergence herbicidal activity on DIGSA (large crabgrass); assay type: in vivo, Digitaria sanguinalis; conditions: lowest tested rate giving 80% or greater inhibition, approx. 14 days after planting and treating, greenhouse
How it was run: as §1

ABUTH [15] = assay: Post-emergence herbicidal activity on ABUTH (velvetleaf); assay type: in vivo, Abutilon theophrasti; conditions: post-emergence spray; lowest tested rate with 80% or greater inhibition; about 14 days after treatment
Text: (§2) All such uses, and the biological activity enabling such uses, are embraced by the term “herbicidal” herein. Tables 15 and 16 summarize results of tests conducted as described below to determine the pre-emergence herbicidal activity, in the form of a GR80 value, of illustrative compounds of this invention. […] Where herbicidal activity was evident but 80% inhibition was not achieved at the highest rate tested (typically 1000 g/ha), an asterisk (*) is shown in the following tables. Herbicidal activity evident in the form of symptoms of phytotoxicity, in the absence of at least 80% inhibition at any rate, is indicated in the tables by “phyto”. A blank cell in the following tables indicates no herbicidal or phytotoxic response at any rate tested.
(§3) In another set of tests, the post-emergence activity of compounds of this invention was evaluated on the cool season species listed above. The following procedure was used.
(§4) A pre-prepared topsoil mixture (described above) was placed in a pot and compacted to a depth of 1.0 to 1.25 cm from the top of the pot. Seeds of each of several monocotyledonous and dicotyledonous annual plant species were placed on top of the soil The seeds were covered with a mixture of 50% topsoil and 50% Rediearth™ in sufficient quantity to level-fill the pots. The pots were then placed on a greenhouse bench and subirrigated as needed until plants growing from the seeds had emerged and reached a suitable growth stage for post-emergence treatment, typically 9 to 14 days after planting.
(§5) A known amount of each test compound dissolved or suspended in an appropriate organic solvent was diluted with a 50:50 mix of acetone and water and applied to the plants by spraying with a standard spray nozzle in a spray volume of 3,100 l/ha at a spray pressure of […] (30 psig). Control plants were not sprayed.
(§6) After treatment the plants were placed in a greenhouse with a 30/21° C. day/night temperature regime and were subsequently watered as needed for growth. Approximately 14 days after treatment, the plants were observed and herbicidal efficacy recorded as percent inhibition by comparison with control plants.

SOLNI [16] = assay: Post-emergence herbicidal activity on SOLNI (black nightshade); assay type: in vivo, Solanum nigrum; conditions: post-emergence spray; lowest tested rate with 80% or greater inhibition; about 14 days after treatment
Text: as §2, §3, §4, §5, §6

AMARE [17] = assay: Post-emergence herbicidal activity on AMARE (redroot pigweed); assay type: in vivo, Amaranthus retroflexus; conditions: post-emergence spray; lowest tested rate with 80% or greater inhibition; about 14 days after treatment
Text: as §2, §3, §4, §5, §6

DATST [18] = assay: Post-emergence herbicidal activity on DATST (jimsonweed); assay type: in vivo, Datura stramonium; conditions: post-emergence spray; lowest tested rate with 80% or greater inhibition; about 14 days after treatment
Text: as §2, §3, §4, §5, §6

CHEAL [19] = assay: Post-emergence herbicidal activity on CHEAL (common lambsquarters); assay type: in vivo, Chenopodium album; conditions: post-emergence spray; lowest tested rate with 80% or greater inhibition; about 14 days after treatment
Text: as §2, §3, §4, §5, §6

CONAR [20] = assay: Post-emergence herbicidal activity on CONAR (field bindweed); assay type: in vivo, Convolvulus arvensis; conditions: post-emergence spray; lowest tested rate with 80% or greater inhibition; about 14 days after treatment
Text: as §2, §3, §4, §5, §6

POROL [21] = assay: Post-emergence herbicidal activity on POROL (common purslane; table head prints PORAL); assay type: in vivo, Portulaca oleracea; conditions: post-emergence spray; lowest tested rate with 80% or greater inhibition; about 14 days after treatment
Text: as §2, §3, §4, §5, §6

CIRAR [22] = assay: Post-emergence herbicidal activity on CIRAR (canada thistle, seedling); assay type: in vivo, Cirsium arvense; conditions: post-emergence spray; lowest tested rate with 80% or greater inhibition; about 14 days after treatment
Text: as §2, §3, §4, §5, §6

ECHCG [23] = assay: Post-emergence herbicidal activity on ECHCG (barnyardgrass); assay type: in vivo, Echinochloa crus-galli; conditions: post-emergence spray; lowest tested rate with 80% or greater inhibition; about 14 days after treatment
Text: as §2, §3, §4, §5, §6

PANMI = assay: Post-emergence herbicidal activity on PANMI (wild proso millet); assay type: in vivo, Panicum miliaceum; conditions: post-emergence spray; lowest tested rate with 80% or greater inhibition; about 14 days after treatment
SORHA [24] = assay: Post-emergence herbicidal activity on SORHA (johnsongrass, seedling); assay type: in vivo, Sorghum halepense; conditions: post-emergence spray; lowest tested rate with 80% or greater inhibition; about 14 days after treatment
Text: as §2, §3, §4, §5, §6

SETFA [25] = assay: Post-emergence herbicidal activity on SETFA (giant foxtail); assay type: in vivo, Setaria faberi; conditions: post-emergence spray; lowest tested rate with 80% or greater inhibition; about 14 days after treatment
Text: as §2, §3, §4, §5, §6

PANDI [26] = assay: Post-emergence herbicidal activity on PANDI (fall panicum); assay type: in vivo, Panicum dichotomiflorum; conditions: post-emergence spray; lowest tested rate with 80% or greater inhibition; about 14 days after treatment
Text: as §2, §3, §4, §5, §6

SORVU = assay: Post-emergence herbicidal activity on SORVU (shattercane); assay type: in vivo, Sorghum vulgare; conditions: post-emergence spray; lowest tested rate with 80% or greater inhibition; about 14 days after treatment
Text: as §2, §3, §4, §5, §6

BRAPP [27] = assay: Post-emergence herbicidal activity on BRAPP (broadleaf signalgrass); assay type: in vivo, Brachiaria platyphylla; conditions: post-emergence spray; lowest tested rate with 80% or greater inhibition; about 14 days after treatment
Text: as §2, §3, §4, §5, §6

DIGSA [28] = assay: Post-emergence herbicidal activity on DIGSA (large crabgrass); assay type: in vivo, Digitaria sanguinalis; conditions: post-emergence spray; lowest tested rate with 80% or greater inhibition; about 14 days after treatment

SMILES	Pre-emergence activity (GR80) on SOLNI (SOLNI [2])	Pre-emergence activity (GR80) on AMARE (AMARE [3]) [g/ha]	Pre-emergence activity (GR80) on DATST (DATST [4])	Pre-emergence activity (GR80) on CHEAL (CHEAL [5])	Pre-emergence activity (GR80) on PORAL (POROL [7])	Pre-emergence activity (GR80) on CIRAR (CIRAR [8])	Pre-emergence activity (GR80) on SETFA (SETFA [11])	Pre-emergence activity (GR80) on PANDI (PANDI [12])	Pre-emergence activity (GR80) on BRAPP (BRAPP [13])	Pre-emergence activity (GR80) on DIGSA (DIGSA [14])	Post-emergence activity (GR80) ABUTH (ABUTH [15])	Post-emergence activity (GR80) SOLNI (SOLNI [16])	Post-emergence activity (GR80) AMARE (AMARE [17])	Post-emergence activity (GR80) DATST (DATST [18])	Post-emergence activity (GR80) CHEAL (CHEAL [19])	Post-emergence activity (GR80) CONAR (CONAR [20])	Post-emergence activity (GR80) PORAL (POROL [21])	Post-emergence activity (GR80) CIRAR (CIRAR [22])	Post-emergence activity (GR80) ECHCG (ECHCG [23])	Post-emergence activity (GR80) PANMI (PANMI)	also measured
CC(CNC(=O)c1cccc(C(F)(F)F)c1)NC(=O)c1cccc(I)c1 (centres unmarked) [Example 59]	phyto	250	1000 g/ha	500 g/ha	125 g/ha	1000 g/ha	1000 g/ha	phyto	phyto	phyto	phyto	phyto	* (Where herbicidal activity was evident but 80% inhibition was not achieved at the highest rate tested (typically 1000 g/ha), an asterisk (*) is shown)	phyto	[empty]	phyto	[empty]	phyto	[empty]	[empty]	Pre-emergence activity (GR80) on ABUTH (ABUTH [1]): phyto; Pre-emergence activity (GR80) on CONAR (CONAR [6]): phyto; Pre-emergence activity (GR80) on ECHCG (ECHCG [9]): phyto; Pre-emergence activity (GR80) on SORHA (SORHA [10]): phyto; Post-emergence activity (GR80) SORHA (SORHA [24]): [empty]; Post-emergence activity (GR80) SETFA (SETFA [25]): [empty]; Post-emergence activity (GR80) PANDI (PANDI [26]): phyto; Post-emergence activity (GR80) SORVU (SORVU): [empty]; Post-emergence activity (GR80) BRAPP (BRAPP [27]): phyto; Post-emergence activity (GR80) DIGSA (DIGSA [28]): phyto
C[C@H](CNC(=O)c1cccc(C(F)(F)F)c1)NC(=O)Oc1ccc(Cl)cc1 [Example 231]	phyto	750	phyto	phyto	phyto	phyto	phyto	phyto	phyto	1000 g/ha	[empty]	[empty]	phyto	* (Where herbicidal activity was evident but 80% inhibition was not achieved at the highest rate tested (typically 1000 g/ha), an asterisk (*) is shown)	phyto	phyto	phyto	[empty]	[empty]	[empty]	Post-emergence activity (GR80) SORHA (SORHA [24]): phyto; Post-emergence activity (GR80) SETFA (SETFA [25]): [empty]; Post-emergence activity (GR80) PANDI (PANDI [26]): phyto; Post-emergence activity (GR80) SORVU (SORVU): phyto; Post-emergence activity (GR80) BRAPP (BRAPP [27]): [empty]; Post-emergence activity (GR80) DIGSA (DIGSA [28]): phyto
